Results published in ChEMBL document CHEMBL1909294, “Translating clinical findings into knowledge in drug safety evaluation--drug induced liver injury prediction system (DILIps)” (PLoS Comput Biol, 2011).

Legend:
Hepatotoxicity [1] = tested on: Hepatotoxicity;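 on HepSE Combined Scores: combined hepatic side effect score as listed in the training data of the Drug Induced Liver Injury Prediction System (DILIps)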;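 on HepSE bilirubinemia: bilirubinemia hepatic side effect score drawn from the DILIps training data, a prediction system for drug-induced liver injury; call rule not given here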;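 on HepSE cholecystitis: Cholecystitis-related hepatic side effect score drawn from the DILIps (drug-induced liver injury prediction) training data set; call rule not given here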;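 on HepSE elevated liver function tests: hepatic side effect score for raised liver function tests, as recorded in the DILIps training set used for predicting drug-induced liver injury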;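 on HepSE hepatomegaly: hepatic side effect score for hepatomegaly, taken from the training set of the DILIps drug-induced liver injury prediction system; call rule not given here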;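 on HepSE jaundice: Jaundice-related hepatic side-effect score drawn from the training data of the DILIps (drug-induced liver injury prediction system); call rule not given here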; on HepSE liver disease: call rule not given here
Hepatotoxicity [2] = tested on: Hepatotoxicity; remark: listed apart in the source;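 on HepSE Combined Scores: combined hepatic side effect score as listed in the training data of the Drug Induced Liver Injury Prediction System (DILIps)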;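 on HepSE bilirubinemia: bilirubinemia hepatic side effect score drawn from the DILIps training data, a prediction system for drug-induced liver injury; call rule not given here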;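 on HepSE cholecystitis: Cholecystitis-related hepatic side effect score drawn from the DILIps (drug-induced liver injury prediction) training data set; call rule not given here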;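 on HepSE elevated liver function tests: hepatic side effect score for raised liver function tests, as recorded in the DILIps training set used for predicting drug-induced liver injury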;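 on HepSE hepatomegaly: hepatic side effect score for hepatomegaly, taken from the training set of the DILIps drug-induced liver injury prediction system; call rule not given here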;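 on HepSE jaundice: Jaundice-related hepatic side-effect score drawn from the training data of the DILIps (drug-induced liver injury prediction system); call rule not given here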; on HepSE liver disease: call rule not given here
Hepatotoxicity [3] = tested on: Hepatotoxicity; remark: listed apart in the source;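 on HepSE Combined Scores: combined hepatic side effect score as listed in the training data of the Drug Induced Liver Injury Prediction System (DILIps)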;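 on HepSE bilirubinemia: bilirubinemia hepatic side effect score drawn from the DILIps training data, a prediction system for drug-induced liver injury; call rule not given here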;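 on HepSE cholecystitis: Cholecystitis-related hepatic side effect score drawn from the DILIps (drug-induced liver injury prediction) training data set; call rule not given here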;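 on HepSE hepatomegaly: hepatic side effect score for hepatomegaly, taken from the training set of the DILIps drug-induced liver injury prediction system; call rule not given here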;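 on HepSE jaundice: Jaundice-related hepatic side-effect score drawn from the training data of the DILIps (drug-induced liver injury prediction system); call rule not given here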; on HepSE liver disease: call rule not given here
Hepatotoxicity [4] = tested on: Hepatotoxicity; remark: listed apart in the source;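 on HepSE Combined Scores: combined hepatic side effect score as listed in the training data of the Drug Induced Liver Injury Prediction System (DILIps)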;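 on HepSE bilirubinemia: bilirubinemia hepatic side effect score drawn from the DILIps training data, a prediction system for drug-induced liver injury; call rule not given here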;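 on HepSE cholecystitis: Cholecystitis-related hepatic side effect score drawn from the DILIps (drug-induced liver injury prediction) training data set; call rule not given here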;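 on HepSE hepatomegaly: hepatic side effect score for hepatomegaly, taken from the training set of the DILIps drug-induced liver injury prediction system; call rule not given here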;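 on HepSE jaundice: Jaundice-related hepatic side-effect score drawn from the training data of the DILIps (drug-induced liver injury prediction system); call rule not given here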; on HepSE liver disease: call rule not given here
Hepatotoxicity [5] = tested on: Hepatotoxicity; remark: listed apart in the source; on HepSE liver disease: call rule not given here
Hepatotoxicity [6] = tested on: Hepatotoxicity; remark: listed apart in the source; on HepSE liver disease: call rule not given here
Hepatotoxicity [7] = tested on: Hepatotoxicity; remark: listed apart in the source
Hepatotoxicity [8] = tested on: Hepatotoxicity; remark: listed apart in the source
Hepatotoxicity [9] = tested on: Hepatotoxicity; remark: listed apart in the source
Hepatotoxicity [10] = tested on: Hepatotoxicity; remark: listed apart in the source
Hepatotoxicity [11] = tested on: Hepatotoxicity; remark: listed apart in the source
Hepatotoxicity [12] = tested on: Hepatotoxicity; remark: listed apart in the source
Hepatotoxicity [13] = tested on: Hepatotoxicity; remark: listed apart in the source
Hepatotoxicity [14] = tested on: Hepatotoxicity; remark: listed apart in the source

SMILES	HepSE_cholecystitis (Hepatotoxicity [1])	HepSE_liver disease (Hepatotoxicity [2])	HepSE_jaundice (Hepatotoxicity [3])	HepSE_Combined Scores (Hepatotoxicity [4])	HepSE_hepatomegaly (Hepatotoxicity [5])	HepSE_bilirubinemia (Hepatotoxicity [6])	HepSE_elevated liver function tests (Hepatotoxicity [7])	HepSE_liver function tests abnormal (Hepatotoxicity [8])	HepSE_cirrhosis (Hepatotoxicity [9])	HepSE_liver fatty (Hepatotoxicity [10])	HepSE_hepatitis (Hepatotoxicity [11])	HepSE_hepatic necrosis (Hepatotoxicity [12])	HepSE_hepatic failure (Hepatotoxicity [13])	HepSE_cholelithiasis (Hepatotoxicity [14])	other results
C[C@]12C/C(=C/O)C(=O)C[C@@H]1CC[C@@H]1[C@@H]2CC[C@@]2(C)[C@H]1CC[C@]2(C)O [OXYMETHOLONE]	0	0	1	2	0	0	0	0	0	0	0	1	0	0	–
CN(C)[C@@H]1C(O)=C(C(N)=O)C(=O)[C@@]2(O)C(O)=C3C(=O)c4c(O)cccc4[C@@](C)(O)[C@H]3[C@H](O)[C@@H]12 [OXYTETRACYCLINE]	0	0	0	0	0	0	0	0	0	0	0	0	0	0	–
CC[C@H](C)[C@@H]1NC(=O)[C@H](Cc2ccc(O)cc2)NC(=O)[C@@H](N)CSSC[C@@H](C(=O)N2CCC[C@H]2C(=O)N[C@@H](CC(C)C)C(=O)NCC(N)=O)NC(=O)[C@H](CC(N)=O)NC(=O)[C@H](CCC(N)=O)NC1=O [OXYTOCIN]	0	0	0	0	0	0	0	0	0	0	0	0	0	0	–
CC(=O)O[C@H]1C(=O)[C@@]2(C)[C@H]([C@H](OC(=O)c3ccccc3)[C@]3(O)C[C@H](OC(=O)[C@H](O)[C@@H](NC(=O)c4ccccc4)c4ccccc4)C(C)=C1C3(C)C)[C@]1(OC(C)=O)CO[C@@H]1C[C@@H]2O [PACLITAXEL]	–	–	–	–	–	–	–	–	–	–	–	–	–	–	HepSE_cholecystitis (Hepatotoxicity [1]; Liver): 0; HepSE_liver disease (Hepatotoxicity [2]; Liver): 0; HepSE_jaundice (Hepatotoxicity [3]; Liver): 0; HepSE_Combined Scores (Hepatotoxicity [4]; Liver): 2; HepSE_hepatomegaly (Hepatotoxicity [5]; Liver): 0; HepSE_bilirubinemia (Hepatotoxicity [6]; Liver): 0; HepSE_elevated liver function tests (Hepatotoxicity [7]; Liver): 1; HepSE_liver function tests abnormal (Hepatotoxicity [8]; Liver): 0; HepSE_cirrhosis (Hepatotoxicity [9]; Liver): 0; HepSE_liver fatty (Hepatotoxicity [10]; Liver): 0; HepSE_hepatitis (Hepatotoxicity [11]; Liver): 0; HepSE_hepatic necrosis (Hepatotoxicity [12]; Liver): 1; HepSE_hepatic failure (Hepatotoxicity [13]; Liver): 0; HepSE_cholelithiasis (Hepatotoxicity [14]; Liver): 0
Cc1nc2n(c(=O)c1CCN1CCC(c3noc4cc(F)ccc34)CC1)CCCC2O (centres undefined) [PALIPERIDONE]	0	0	0	0	0	0	0	0	0	0	0	0	0	0	–
O=C1c2cccc3c2[C@H](CCC3)CN1[C@@H]1CN2CCC1CC2 [PALONOSETRON]	0	0	0	0	0	0	0	0	0	0	0	0	0	0	–
NCCC(O)(P(=O)(O)O)P(=O)(O)O [PAMIDRONIC ACID]	0	0	0	1	0	0	0	1	0	0	0	0	0	0	–
CC(=O)O[C@H]1C[C@@H]2CC[C@@H]3[C@H](CC[C@@]4(C)[C@H]3C[C@H]([N+]3(C)CCCCC3)[C@@H]4OC(C)=O)[C@@]2(C)C[C@@H]1[N+]1(C)CCCCC1 [PANCURONIUM]	–	–	–	–	–	–	–	–	–	–	–	–	–	–	HepSE_cholecystitis (Hepatotoxicity [1]; Liver): 0; HepSE_liver disease (Hepatotoxicity [2]; Liver): 0; HepSE_jaundice (Hepatotoxicity [3]; Liver): 0; HepSE_Combined Scores (Hepatotoxicity [4]; Liver): 0; HepSE_hepatomegaly (Hepatotoxicity [5]; Liver): 0; HepSE_bilirubinemia (Hepatotoxicity [6]; Liver): 0; HepSE_elevated liver function tests (Hepatotoxicity [7]; Liver): 0; HepSE_liver function tests abnormal (Hepatotoxicity [8]; Liver): 0; HepSE_cirrhosis (Hepatotoxicity [9]; Liver): 0; HepSE_liver fatty (Hepatotoxicity [10]; Liver): 0; HepSE_hepatitis (Hepatotoxicity [11]; Liver): 0; HepSE_hepatic necrosis (Hepatotoxicity [12]; Liver): 0; HepSE_hepatic failure (Hepatotoxicity [13]; Liver): 0; HepSE_cholelithiasis (Hepatotoxicity [14]; Liver): 0
COc1ccnc(C[S+]([O-])c2nc3ccc(OC(F)F)cc3[nH]2)c1OC (centres undefined) [PANTOPRAZOLE]	1	0	1	7	0	1	0	1	0	0	1	0	1	1	–
C[C@H](/C=C/[C@H](C)C(C)(C)O)[C@H]1CC[C@H]2/C(=C/C=C3C[C@@H](O)C[C@H](O)C3)CCC[C@]12C [PARICALCITOL]	0	0	0	0	0	0	0	0	0	0	0	0	0	0	–
NC[C@@H]1O[C@H](O[C@H]2[C@@H](O)[C@H](O[C@@H]3[C@@H](O)[C@H](N)C[C@H](N)[C@H]3O[C@H]3O[C@H](CO)[C@@H](O)[C@H](O)[C@H]3N)O[C@@H]2CO)[C@H](N)[C@@H](O)[C@@H]1O [PAROMOMYCIN]	0	0	0	0	0	0	0	0	0	0	0	0	0	0	–
Fc1ccc([C@@H]2CCNC[C@H]2COc2ccc3c(c2)OCO3)cc1 [PAROXETINE]	0	0	1	8	0	1	1	1	0	0	1	1	1	1	–
Nc1nc2[nH]cc(CCc3ccc(C(=O)N[C@@H](CCC(=O)O)C(=O)O)cc3)c2c(=O)[nH]1 [PEMETREXED]	0	0	0	0	0	0	0	0	0	0	0	0	0	0	–
NC1=NC(=O)C(c2ccccc2)O1 (centres undefined) [PEMOLINE]	0	0	1	2	0	0	0	0	0	0	1	0	0	0	–
CC(C)(C)NC[C@H](O)COc1ccccc1C1CCCC1 [PENBUTOLOL]	0	0	0	0	0	0	0	0	0	0	0	0	0	0	–
Nc1nc2c(ncn2CCC(CO)CO)c(=O)[nH]1 [PENCICLOVIR]	0	0	0	0	0	0	0	0	0	0	0	0	0	0	–
